Data set [1] relates to Rattus norvegicus. The data set is described as follows: Toxicity in Wistar rat at 3 mg/kg. It counts as organism-based. On the set-up: dose 3 mg/kg. Conditions: in vivo.
In data set [2] the test system is Mus musculus. The data set is described as follows: Toxicity in mouse at 3 mg/kg, ip. It counts as organism-based. More on the design: dose 3 mg/kg, route intraperitoneal. Particulars: in vivo.

SMILES strings stand for the structures.

For `C=C1[C@@H]2CC[C@H]3[C@]4(C)C[C@H](O[C@@H]5O[C@H](CO)[C@@H](O)[C@H](O)[C@H]5OC(=O)CC(C)CC)CC(C(=O)O)(C(=O)O)[C@H]4CC[C@]3(C2)[C@H]1O` (some centres undefined), the Activity entry in data set [1] and in data set [2] was “Toxic” throughout.

As for `C=C1[C@@H]2CC[C@H]3[C@]4(C)C[C@H](O[C@@H]5O[C@H](CO)[C@@H](O)[C@H](O)[C@H]5OC(=O)CC(C)C)CC(C(=O)O)(C(=O)O)[C@H]4CC[C@]3(C2)[C@H]1O`, the Activity result in data set [1] and in data set [2] was “Toxic” throughout.

(Values after ChEMBL document CHEMBL1150178, “Two toxic kaurene glycosides from the burrs of Xanthium pungens” (J Nat Prod, 1990).)
